Test results: ChEMBL document CHEMBL1130269, “A 3D QSAR study of a series of HEPT analogues: the influence of conformational mobility on HIV-1 reverse transcriptase inhibition” (J Med Chem, 1997)
“And” between values parts separate entries of the source, which are not always exact repeats. Equal values may be shown once.

Each molecule was assayed against Human immunodeficiency virus type 1 reverse transcriptase (Human immunodeficiency virus 1, UniProt Q72547) (assay: Inhibitory concentration against HIV-1 reverse transcriptase).

| SMILES | EC50 |
| --- | --- |
| Cc1c(Sc2cc(Cl)cc(Cl)c2)n(COCCO)c(=O)[nH]c1=O | 1.3 µM |
| CC(=O)c1cccc(Sc2c(C)c(=O)[nH]c(=O)n2COCCO)c1 | 7.3 µM |
| C=Cc1c(Sc2ccccc2)n(COCCO)c(=O)[nH]c1=O | 4.7 µM |
| O=c1[nH]c(=O)n(COCCO)c(Sc2ccccc2)c1I | 4.3 µM |
| CCc1c(Sc2ccccc2)n(COCC2CCCCC2)c(=O)[nH]c1=O | 0.45 µM |
| CCc1c(Sc2ccccc2)n(COCCc2ccccc2)c(=O)[nH]c1=O | 0.096 µM |
| CC(C)c1c(Sc2ccccc2)n(COCc2ccccc2)c(=S)[nH]c1=O | 0.0068 µM |
| CCOCn1c(Sc2ccccc2)c(C(C)C)c(=O)[nH]c1=S | 0.014 µM |
| CCc1c(Sc2ccccc2)n(CC(C)C)c(=O)[nH]c1=O | 0.34 µM |
| CCc1c(Sc2ccccc2)n(COCc2ccccc2)c(=S)[nH]c1=O | 0.0078 µM |
| CCc1c(Sc2ccccc2)n(COCCc2ccccc2)c(=S)[nH]c1=O | 0.091 µM |
| CCc1c(Sc2ccccc2)n(COCc2ccc(C)cc2)c(=S)[nH]c1=O | 0.078 µM |
| CCc1c(Sc2cc(C)cc(C)c2)n(COCc2ccccc2)c(=S)[nH]c1=O | 0.0069 µM |
| CCc1c(Sc2ccccc2)n(CCCc2ccccc2)c(=O)[nH]c1=O | 0.29 µM |
| CCOCn1c(Sc2cc(C)cc(C)c2)c(CC)c(=O)[nH]c1=O | 0.0054 µM |
| CCc1c(Sc2ccccc2)n(COCC2CCCCC2)c(=S)[nH]c1=O | 0.35 µM |
| CCc1c(Sc2ccccc2)n(CC(C)C)c(=S)[nH]c1=O | 0.22 µM |
| Cc1cccc(Sc2c(C)c(=O)[nH]c(=O)n2COCCO)c1 | 2.6 µM |
| Cc1c(Sc2cccc(I)c2)n(COCCO)c(=O)[nH]c1=O | 10 µM |
| Cc1ccc(Sc2c(C)c(=O)[nH]c(=O)n2COCCO)cc1 | 220 µM |
| COC(=O)c1cccc(Sc2c(C)c(=O)[nH]c(=O)n2COCCO)c1 | 7.9 µM |

| SMILES | EC50 |
| --- | --- |
| CCc1c(Sc2cc(C)cc(C)c2)n(COCCO)c(=S)[nH]c1=O | 0.0078 µM |
| Cc1c(Sc2cccc([N+](=O)[O-])c2)n(COCCO)c(=O)[nH]c1=O | 34 µM |
| CCc1c(Sc2cc(Cl)cc(Cl)c2)n(COCCO)c(=S)[nH]c1=O | 0.043 µM |
| COc1cccc(Sc2c(C)c(=O)[nH]c(=O)n2COCCO)c1 | 22 µM |
| Cc1cc(C)cc(Sc2c(C(C)C)c(=O)[nH]c(=S)n2COCCO)c1 | 0.005 µM |
| Cc1c(Sc2ccccc2[N+](=O)[O-])n(COCCO)c(=O)[nH]c1=O | 140 µM |
| CC(C)c1c(Sc2ccccc2)n(COCCO)c(=O)[nH]c1=O | 0.063 µM |
| Cc1c(Sc2cccc(C(C)(C)C)c2)n(COCCO)c(=O)[nH]c1=O | 12 µM |
| CC(C)c1c(Sc2ccccc2)n(COCCO)c(=S)[nH]c1=O | 0.059 µM |
| Cc1c(Sc2cccc(F)c2)n(COCCO)c(=O)[nH]c1=O | 3.3 µM |
| COc1ccccc1Sc1c(C)c(=O)[nH]c(=O)n1COCCO | 19 µM |
| CCc1c(Sc2ccccc2)n(COCCO)c(=O)[nH]c1=O | 0.11 µM and 0.12 µM |
| Cc1cc(C)cc(Sc2c(C)c(=O)[nH]c(=S)n2COCCO)c1 | 0.22 µM |
| Cc1c(Sc2cccc(C#N)c2)n(COCCO)c(=O)[nH]c1=O | 10 µM |
| Cc1c(Sc2cccc(O)c2)n(COCCO)c(=O)[nH]c1=O | 82 µM |
| Cc1c(Sc2cccc(Br)c2)n(COCCO)c(=O)[nH]c1=O | 5.7 µM |
| Cc1ccccc1Sc1c(C)c(=O)[nH]c(=O)n1COCCO | 71 µM |
| Cc1c(Oc2ccccc2)n(COCCO)c(=O)[nH]c1=O | 8.9 µM |
| CCc1c(Sc2ccccc2)n(COCc2ccccc2)c(=O)[nH]c1=O | 0.0059 µM |
| CCCCn1c(Sc2ccccc2)c(C)c(=O)[nH]c1=O | 1.2 µM |
| Cc1c(Sc2ccccc2)n(C/C=C/c2ccccc2)c(=O)[nH]c1=O | 2.5 µM |

| SMILES | EC50 |
| --- | --- |
| CCc1c(Sc2ccccc2)n(C/C=C/c2ccccc2)c(=O)[nH]c1=O | 0.19 µM |
| CCc1c(Sc2cc(C)cc(C)c2)n(COCc2ccccc2)c(=O)[nH]c1=O | 0.0032 µM |
| CCc1c(Sc2cc(C)cc(C)c2)n(C/C=C/c2cccs2)c(=O)[nH]c1=O | 0.04 µM |
| CCOCn1c(Cc2cc(C)cc(C)c2)c(CC)c(=O)[nH]c1=O | 0.0016 µM |
| CCOCn1c(Cc2cc(C)cc(C)c2)c(C(C)C)c(=O)[nH]c1=O | 0.0006 µM |
| COCCn1c(Cc2ccccc2)c(C(C)C)c(=O)[nH]c1=O | 0.052 µM |
| CCOCn1c(Sc2ccccc2)c(C2CC2)c(=O)[nH]c1=S | 0.095 µM |
| Cc1c(Sc2ccc(C3CCCCC3)cc2)n(COCCO)c(=O)[nH]c1=O | 3.5 µM |
| CCc1c(Sc2ccccc2)n(COCc2ccc(Cl)cc2)c(=S)[nH]c1=O | 0.012 µM |
| CCc1c(Sc2ccccc2)n(COC2CCCCC2)c(=S)[nH]c1=O | 1.6 µM |
| CCOCn1c(Sc2cc(Cl)cc(Cl)c2)c(CC)c(=O)[nH]c1=O | 0.0074 µM |
| CCOCn1c(Sc2cc(C)cc(C)c2)c(CC)c(=O)[nH]c1=S | 0.0044 µM |
| CCOCn1c(Sc2cc(Cl)cc(Cl)c2)c(CC)c(=O)[nH]c1=S | 0.013 µM |
| CCc1c(Sc2ccccc2)n(COC2CCCCC2)c(=O)[nH]c1=O | 4 µM |
| Cc1c(Cc2ccccc2)n(COCCO)c(=O)[nH]c1=O | 5.7 µM |
| CCOCn1c(Sc2ccccc2)c(CC)c(=O)[nH]c1=O | 0.019 µM |
| Cc1c(Sc2ccccc2)n(COCc2ccccc2)c(=O)[nH]c1=O | 0.088 µM |
| CCOCn1c(Sc2ccccc2)c(C)c(=O)[nH]c1=O | 0.33 µM |
| COCCOCn1c(Sc2ccccc2)c(C)c(=O)[nH]c1=O | 8.7 µM |
| CCOCn1c(Sc2ccccc2)c(C(C)C)c(=O)[nH]c1=O | 0.012 µM |
| CCn1c(Sc2ccccc2)c(C)c(=O)[nH]c1=O | 2.2 µM |

| SMILES | EC50 |
| --- | --- |
| CC(C)c1c(Sc2ccccc2)n(COCc2ccccc2)c(=O)[nH]c1=O | 0.0027 µM |
| COCn1c(Sc2ccccc2)c(C)c(=O)[nH]c1=O | 2.1 µM |
| CCOCn1c(Sc2ccccc2)c(C2CC2)c(=O)[nH]c1=O | 0.1 µM |
| CCCOCn1c(Sc2ccccc2)c(C)c(=O)[nH]c1=O | 3.6 µM |
| CCc1cccc(Sc2c(C)c(=O)[nH]c(=O)n2COCCO)c1 | 2.7 µM |
| CCc1c(Sc2ccccc2)n(C/C=C/c2cccs2)c(=O)[nH]c1=O | 0.08 µM |
| Cc1c(Sc2cccc(Cl)c2)n(COCCO)c(=O)[nH]c1=O | 13 µM |
| CCOCn1c(Sc2ccccc2)c(CC)c(=O)[nH]c1=S | 0.026 µM |
| CCc1c(Sc2cc(Cl)cc(Cl)c2)n(COCCO)c(=O)[nH]c1=O | 0.014 µM |
| CCc1c(Cc2ccccc2)n(CCOC)c(=O)[nH]c1=O | 0.25 µM |
| CCc1c(Sc2ccccc2)n(C/C=C/c2ccco2)c(=O)[nH]c1=O | 0.17 µM |
| Cc1c(Sc2cccc(C(F)(F)F)c2)n(COCCO)c(=O)[nH]c1=O | 45 µM |
| CCc1c(Sc2cc(C)cc(C)c2)n(C/C=C/c2ccco2)c(=O)[nH]c1=O | 0.04 µM |
| Cc1c(Sc2ccccc2)n(C/C=C/c2cccnc2)c(=O)[nH]c1=O | 0.1 µM |
| CCOCn1c(Cc2ccccc2)c(CC)c(=O)[nH]c1=O | 0.041 µM |
| CC(C)c1c(Cc2ccccc2)n(COCCO)c(=O)[nH]c1=O | 0.063 µM |
| Cc1cc(C)cc(Cc2c(C(C)C)c(=O)[nH]c(=O)n2COCCO)c1 | 0.0027 µM |
| CCc1c(Cc2cc(C)cc(C)c2)n(COCCO)c(=O)[nH]c1=O | 0.013 µM |
| CCc1c(Cc2ccccc2)n(COCCO)c(=O)[nH]c1=O | 0.35 µM |
| CCOCn1c(Cc2ccccc2)c(C(C)C)c(=O)[nH]c1=O [EMIVIRINE] | 0.0042 µM |
